# Entries after “also recorded” stand apart in the source; their conditions may differ.
# Legend:
# [1] = system: HeLa cells overexpressing full-length JARID1B; assay: H3K4me3 immunofluorescence in cells overexpressing 3xHA-JARID1B; format: cell-based; details: 10 μM or 30 μM, 24 hours
# Experimental: pcDNA3.1(−)-3×HA-JARID1B construct was generated by inserting 3×HA-JARID1B between BamHI and XbaI of pcDNA3.1(−) vector. MCF7 cells were plated on 12 mm circle coverslips in 24-well plates and transfected with pcDNA3.1(−)-3×HA-JARID1B in the presence of 0, 10 or 30 μM PBIT. After incubation for 24 hours, the cells were fixed, permeabilized, and stained with antibodies against HA and H3K4me3 for 2 hours. The coverslips were then incubated with anti-mouse Alexa-546 (Invitrogen, A-11003) and goat anti-rabbit Envision (Dako, K4002) for 1 hour. Cy5-Tyramide (Perkin Elmer, NEL775001KT) and 4,6-diamidino-2-phenylindole dihydrochloride (DAPI) (Biotium, 40011) were used to visualize 3×HA-tagged JARID1B and nuclei, respectively. The slides were sealed and analyzed under an Olympus fluorescence microscope.
# To determine whether JARID1B could be inhibited by PBIT in cells, HeLa cells overexpressing full-length JARID1B were treated with 10 μM or 30 μM PBIT. As expected, in JARID1B transfected cells, the levels of H3K4me3 decreased dramatically compared with untransfected cells (FIG. 5).
# YURIF melanoma cells = assay: WST-1 cell proliferation assay; format: cell-based, human; details: 0, 10 and 30 μM
# Experimental: (§1) The colorimetric assay (WST-1 reagent) from Roche (11644807001) was performed in 96 well white clear bottom plates (Costar, 3610). 1,000 cells were seeded per well (in quadruplicate) overnight, and PBIT was added to the cells to the indicated concentration for 72 hrs. 0.01% DMSO was included as the control. The WST-1 reagent was added (5 μl per well) for 4 hrs, and OD 440 nm absorbance (which reflects the number of viable cells) was measured with the BioTek Synergy Mx Platereader.
# (§2) A panel of mouse and human melanoma cells was treated with 0, 10 and 30 μM PBIT and their proliferation rates were assessed using WST-1 assays.
# YUAME melanoma cells = assay: WST-1 cell proliferation assay; format: cell-based, human; details: 0, 10 and 30 μM
# Experimental: as §1, §2
# YULAC melanoma cells = assay: WST-1 cell proliferation assay; format: cell-based, human; details: 0, 10 and 30 μM
# Experimental: as §1, §2
# UTX = target: T1, UTX (Homo sapiens, UniProt O15550); assay: His-FLAG-UTX H3K27me3 demethylase assay with AlphaScreen detection; format: biochemical; details: compound 10 μM, 64 nM bio-H3K27me3 peptide
# T1 construct: His (N); FLAG (N); made in house; host or cells: Sf21 insect cells (baculovirus)
# Experimental: Histone demethylase assays were performed in 384 well white plates (Corning 3574). Demethylase buffer conditions for FLAG-JARID1B were as follows: 10 μM α-KG, 100 μM ascorbate, 50 μM (NH4)2Fe(SO4)2, 50 mM Hepes (pH 7.5), 0.01% (v/v) Tween 20, and 0.1% (w/v) bovine serum albumin. The demethylase reactions included 64 nM bio-H3K4me3 peptide alone or in the presence of 4 nM FLAG-JARID1B enzyme in a 10 μl reaction at 25° C. for 30 minutes. As a positive control, 64 nM bio-H3K4me2 peptide was assayed in the absence of enzyme. Assay conditions for FLAG-JARID1C is the same as for FLAG-JARID1B except that 20 nM enzyme was used. For FLAG-JARID1A, the demethylase buffer was similar to FLAG-JARID1B, except that 125 μM α-KG and 13 nM FLAG-JARID1A enzyme were used. […]
# The AlphaScreen General IgG (Protein A) detection kit was obtained from PerkinElmer. Demethylated H3K4 products were detected using AlphaScreen antibody/bead mix containing 7.5 mM ethylenediaminetetraacetic acid (EDTA) and 0.15 μg/ml anti-H3K4me1 antibody in a final volume of 20 μl. […] The luminescence signal was measured using the Envision (PerkinElmer) or Pherastar (BMG Labtech) Platereaders.
# UACC-812 cells = assay: WST-1 cell proliferation assay; format: cell-based, human; details: 10 μM, 72 hrs
# Experimental: as §1
# MCF10A cells = assay: WST-1 cell proliferation assay; format: cell-based, human; details: 10 μM, 72 hrs
# Experimental: as §1
# MCF7 cells = assay: WST-1 cell proliferation assay; format: cell-based, human; details: 10 μM, 72 hrs
# Experimental: as §1
# T1 sequence (O15550 whole entry): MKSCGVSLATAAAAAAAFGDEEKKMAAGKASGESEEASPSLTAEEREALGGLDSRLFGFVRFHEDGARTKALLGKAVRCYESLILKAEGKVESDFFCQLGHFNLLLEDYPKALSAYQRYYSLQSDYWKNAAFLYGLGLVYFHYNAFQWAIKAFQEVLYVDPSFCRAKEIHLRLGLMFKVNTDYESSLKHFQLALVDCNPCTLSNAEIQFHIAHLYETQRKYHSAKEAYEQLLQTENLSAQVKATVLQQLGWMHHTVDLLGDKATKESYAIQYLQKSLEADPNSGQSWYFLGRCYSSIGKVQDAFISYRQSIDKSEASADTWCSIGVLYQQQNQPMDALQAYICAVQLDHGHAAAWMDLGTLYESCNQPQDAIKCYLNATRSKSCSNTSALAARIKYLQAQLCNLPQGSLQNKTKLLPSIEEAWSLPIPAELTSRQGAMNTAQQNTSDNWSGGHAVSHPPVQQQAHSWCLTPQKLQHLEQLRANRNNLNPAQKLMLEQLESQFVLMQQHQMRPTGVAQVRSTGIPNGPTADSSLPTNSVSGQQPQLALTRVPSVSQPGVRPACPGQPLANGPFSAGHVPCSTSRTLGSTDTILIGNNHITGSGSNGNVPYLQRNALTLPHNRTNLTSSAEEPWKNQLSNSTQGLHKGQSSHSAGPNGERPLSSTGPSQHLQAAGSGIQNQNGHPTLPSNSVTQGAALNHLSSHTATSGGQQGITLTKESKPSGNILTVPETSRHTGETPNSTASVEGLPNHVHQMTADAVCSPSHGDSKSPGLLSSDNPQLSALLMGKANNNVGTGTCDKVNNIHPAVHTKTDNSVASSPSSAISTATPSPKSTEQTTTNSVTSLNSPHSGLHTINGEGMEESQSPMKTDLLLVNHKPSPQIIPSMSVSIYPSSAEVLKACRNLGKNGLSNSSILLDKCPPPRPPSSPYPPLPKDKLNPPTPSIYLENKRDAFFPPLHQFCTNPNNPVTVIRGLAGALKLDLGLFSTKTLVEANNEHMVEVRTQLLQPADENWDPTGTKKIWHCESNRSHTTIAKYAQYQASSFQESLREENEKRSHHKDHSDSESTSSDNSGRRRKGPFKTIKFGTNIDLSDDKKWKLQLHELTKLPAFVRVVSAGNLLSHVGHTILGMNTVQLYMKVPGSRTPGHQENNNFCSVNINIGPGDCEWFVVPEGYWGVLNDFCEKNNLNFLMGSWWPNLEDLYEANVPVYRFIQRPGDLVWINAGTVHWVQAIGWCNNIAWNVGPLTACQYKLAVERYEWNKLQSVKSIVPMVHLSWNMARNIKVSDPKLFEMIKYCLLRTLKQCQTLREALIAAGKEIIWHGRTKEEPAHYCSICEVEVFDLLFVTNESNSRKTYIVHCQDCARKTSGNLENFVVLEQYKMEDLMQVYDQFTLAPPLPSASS
smiles,measurement,setting,value
"Cc1ccc(-n2sc3ccccc3c2=O)cc1 [PBIT, 2-4(4-methylphenyl)-1,2-benzisothiazol-3(2H)-one]",JARID1B overexpression-induced decrease of H3K4me3,[1],prevented; also recorded: decrease was blocked
same,sensitivity of proliferation to treatment (WST-1),YURIF melanoma cells,least sensitive
same,sensitivity of proliferation to treatment (WST-1),YUAME melanoma cells,sensitive
same,sensitivity of proliferation to treatment (WST-1),YULAC melanoma cells,sensitive
same,UTX demethylase activity,UTX,minimal effect; also recorded: did not inhibit
same,cell proliferation (WST-1),UACC-812 cells,killed most
same,cell proliferation (WST-1),MCF10A cells,minimal toxicity
same,cell proliferation (WST-1),MCF7 cells,did not inhibit growth; also recorded: minimal toxicity
